Data: US20040232089A1, “Biocidal compounds for treating water” (VANETTA S.p.A., priority 2003, published 2004)

How the values were obtained:
[1] = Hydrolysis test carried out in the dark; format: physicochemical
From the text: From the hydrolysis test carried out in the dark, MNB and MPB appear to be readily degradable at a pH compatible with environmental conditions.

[2] = Photo-degradability under daylight and UV; format: physicochemical; conditions: 10 ppm in drinking water (pH 6,5-7,5)
Method: Similarly, the same behaviour is confirmed when evaluating the photo-degradability under daylight and UV (the irradiation test is carried out on a solution of 10 ppm in drinking water (pH 6,5-7,5)).

[3] = Biodegradability OECD 301 A (92/69/EEC C4-A); conditions: 7 days after the beginning of the test
Method: In fact, based on data available with respect to the most similar compounds to the menadione derivatives disclosed herein, one would expect a degradability in the range of 0% (percentage calculated based on the initial mass expressed in mg/l) typical of menadione (2-methyl-1,4-naphthalenedione) and 17% (assessed after 28 days) typical of menadione sodium bisulphite (which calculation was performed in accordance with the guidelines OECD301 A attached to directive EEC 92/69/EEC C4-A).
Finally biodegradability was also evaluated according to standard 92/69/EEC C4-A. From the data, both MNB and MPB result to have a remarkably better biodegradability than 2-methyl-1,4-naphthalenedione and particularly than MSB.

[4] = From the text: As reminded often, the water solubility is an essential feature for the candidate biocide to be used successfully in the biological control of water.

Row | Compound | ½ LIFE (hydrolysis) ([1]; pH 6, 8, in the dark) | ½ LIFE (hydrolysis) ([1]; pH 9, in the dark) | Light exp. Tot Degr. [2] | Light exp. ½ life [2] | degradability relative to that of MSB [3] | Sol. in H2O [4]
1 | CC1(S(=O)(=O)O)CC(=O)c2ccccc2C1=O.Cc1cc(C)[nH]c(=O)n1 (centres unmarked) [MPB, menadione dimethylpyrimidinole bisulphite] | 48 h | <3 h | 48 h | 10 h | eight | 10 gr/l
2 | CC1=CC(=O)c2ccccc2C1=O [Menadione, 2-methyl-1,4-naphthalenedione, reference compound] | 1500 h | 550 h | >5000 h | 1500 h | – | ins.
3 | O=C1C=CC(=O)c2c(O)cccc21 [Juglone, 5-hydroxy-1,4-naphthalenedione, reference compound] | >288 h | 15 h | 48 h | – | – | –
